Laboratory results reported in USRE42890E1, “Furazanobenzimidazoles” (Basilea Pharmaceutica AG, priority 2003, dated 2011).

Columns and labels:
Jurkat [1] = assay: PI staining for cell cycle distribution, Jurkat; assay type: cell-based, human; set-up: key: 0: no effect; 1: weak effect; 2: strong effect; details: Jurkat 3 μM, 24 h; for PI staining for cell cycle distribution, G2M: cell population arrested in G2M phase; for PI staining for cell cycle distribution, subG1: subG1 peak indicative for DNA fragmentation
Protocol: (§1) Cell lines are cultured in RPMI-1640 tissue culture medium containing either 5% or 10% fetal calf serum, 0.05 mM 2-mercaptoethanol, 2 mM glutamine and penicillin/streptomycin 50 μg/ml (complete medium) (Sigma, Buchs, Switzerland). General growth conditions are 37° C. and 7.5% CO2.
(§2) The following human cell lines (either EGFP transfected or not) are being used: HeLa (ATCC: CCL-2), KB (ATCC: CCL-17), MCF7 (ATCC: HTB-22), SK-BR-3 (ATCC: HTB-30), SK-Mel 1 (ATCC: HTB-67), SK-Mel 28 (ATCC: HTB-72), PC-3 (ATCC: CRL-1435), SW 480 (ATCC: CCL-228), NCl-H460 (ATCC: HTB-177), NCl-H1792 (ATCC: CRL-5895), HT1080 (ATCC: CCL-21), Jurkat (ATCC: TIB-152), Ramos (ATCC: CRL-1596), Raji (ATCC: CCL-86), H9 (ATCC: HTB-176), Hut78 (ATCC: TIB-161), K562 (ATCC: CCL 243), HL-60 (ATCC: CCL 240), U-87MG (ATCC: HTB-14), HepG2 (ATCC: HB-8065), U-2 OS (ATCC: HTB-96), Saos-2 (ATCC: HTB-85), U937 (ATCC: CRL 1593), Hs 578T (ATCC: HTB 126), HBL-100 (ATCC: HTB 124), Molt-4 (ATCC: CRL 1582).
(§3) 1-2*10^5 cells are seeded into 24 well tissue culture plates and incubated for 24 h prior to compound addition. Compounds are added for 24 h in a final concentration of 3 μM or 10 μM. Adherent cells are harvested by trypsinization. The cell suspensions are fixed by adding 2 parts ice cold ethanol 100% while vortexing. Then the samples are stored for >2 h at −20° C. Subsequently the cells are washed with PBS once and resuspended in 250 μl PBS containing 50 μg/ml PI (Calbiochem # 537059), then the samples are incubated at 37° C. for 30 minutes and subsequently analyzed on a FACSCalibur™ monitoring linear PI fluorescence activity on FL2. The readout allows the detection of a possible direct or indirect influence of the tested compounds on the cell cycle. The following events can occur: a) Generation of a subG1 peak indicative for DNA fragmentation, b) increase of the cell population arrested in G2M phase. Both events are scored by 1 for weak and 2 for strong occurrence. 0 indicates no occurrence at all.

Jily = assay: MTS proliferation assay, Jily; assay type: cell-based; details: 72 h incubation, read-out: MTS proliferation assay IC 50 Jily
Summary of the method: (§4)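 Viability after 72 h compound exposure at 10, 3, 1 and 0.3 μM final was scored by MTS absorbance (492 nm, 3 h reagent incubation), with cells kept in RPMI-1640 containing 5% or 10% fetal calf serum.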

HT1080 = assay: MTS proliferation assay, HT1080; assay type: cell-based, human; details: HT1080, 72 h incubation; read-out: MTS proliferation assay IC 50 HT1080
Summary of the method: (§5)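 Proliferation: RPMI-1640/FCS complete medium, 37 °C, 7.5% CO2, cells plated 24 h pre-dose; compounds at 10, 3, 1, 0.3 μM final for 72 h; MTS, 492 nm.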

HeLa [2] = assay: MTS proliferation assay, HeLa; assay type: cell-based, human; details: 72 h incubation, read-out: MTS proliferation assay IC 50 HeLa
Summary of the method: as §5

Jurkat [3] = assay: MTS proliferation assay, Jurkat; assay type: cell-based, human; details: 72 h incubation, read-out: MTS proliferation assay IC 50 Jurkat
Summary of the method: as §5

HeLa [4] = assay: PI staining for cell cycle distribution, HeLa; assay type: cell-based, human; set-up: key: 0: no effect; 1: weak effect; 2: strong effect; details: HeLa 10 μM, 24 h; for PI staining for cell cycle distribution, G2M: cell population arrested in G2M phase; for PI staining for cell cycle distribution, subG1: subG1 peak indicative for DNA fragmentation
Protocol: as §1, §2, §3

MRC5 = assay: MTS proliferation assay, MRC5; assay type: cell-based; details: MRC5, 72 h incubation; read-out: MTS proliferation assay IC 50 MRC5
Summary of the method: as §4

[5] = system: adherent cells or suspension cells; assay: Hoechst 33342 nuclear staining (fraction of apoptotic nuclei); assay type: cell-based; set-up: key: 0 relating to no activity; 1 relating to weak activity comprising less than 70% of the cells; score 2 relating to strong activity comprising more than 70% of the cells

Compound: N#CCCNc1nonc1-c1nc2ccccc2n1CC(=O)c1ccc(N)cc1 [Example 58]
- PI staining for cell cycle distribution, G2M (Jurkat [1]): 0
- PI staining for cell cycle distribution, subG1 (Jurkat [1]): 0
- IC50 (Jily): < 10 nM
- IC50 (HT1080): < 10 nM
- IC50 (HeLa [2]): 10 to 100 nM
- IC50 (Jurkat [3]): < 10 nM
- PI staining for cell cycle distribution, G2M (HeLa [4]): 2
- PI staining for cell cycle distribution, subG1 (HeLa [4]): 0
- IC50 (MRC5): < 10 nM
- Hoechst 33342 nuclear staining score ([5]; H460, conc 0.01 μm): 2 (score 2 relating to strong activity comprising more than 70% of the cells)
- Hoechst 33342 nuclear staining score ([5]; H460, conc 0.1 μm): 2 (score 2 relating to strong activity comprising more than 70% of the cells)
- Hoechst 33342 nuclear staining score ([5]; H460, conc 1 μm): 2 (score 2 relating to strong activity comprising more than 70% of the cells)
- Hoechst 33342 nuclear staining score ([5]; HeLa, conc 0.01 μm): 2 (score 2 relating to strong activity comprising more than 70% of the cells)
- Hoechst 33342 nuclear staining score ([5]; HeLa, conc 0.1 μm): 2 (score 2 relating to strong activity comprising more than 70% of the cells)
- Hoechst 33342 nuclear staining score ([5]; HeLa, conc 1 μm): 2 (score 2 relating to strong activity comprising more than 70% of the cells)
- Hoechst 33342 nuclear staining score ([5]; Jily, conc 0.01 μm): 2 (score 2 relating to strong activity comprising more than 70% of the cells)
- Hoechst 33342 nuclear staining score ([5]; Jily, conc 0.1 μm): 2 (score 2 relating to strong activity comprising more than 70% of the cells)
- Hoechst 33342 nuclear staining score ([5]; Jily, conc 1 μm): 2 (score 2 relating to strong activity comprising more than 70% of the cells)
- Hoechst 33342 nuclear staining score ([5]; Jurkat, conc 0.01 μm): 2 (score 2 relating to strong activity comprising more than 70% of the cells)
- Hoechst 33342 nuclear staining score ([5]; Jurkat, conc 0.1 μm): 2 (score 2 relating to strong activity comprising more than 70% of the cells)
- Hoechst 33342 nuclear staining score ([5]; Jurkat, conc 1 μm): 2 (score 2 relating to strong activity comprising more than 70% of the cells)
- Hoechst 33342 nuclear staining score ([5]; MRC5, conc 0.01 μm): 1 (1 relating to weak activity comprising less than 70% of the cells)
- Hoechst 33342 nuclear staining score ([5]; MRC5, conc 0.1 μm): 2 (score 2 relating to strong activity comprising more than 70% of the cells)
- Hoechst 33342 nuclear staining score ([5]; MRC5, conc 1 μm): 2 (score 2 relating to strong activity comprising more than 70% of the cells)
- Hoechst 33342 nuclear staining score ([5]; PBLs, conc 0.01 μm): 0
- Hoechst 33342 nuclear staining score ([5]; PBLs, conc 0.1 μm): 0
- Hoechst 33342 nuclear staining score ([5]; PBLs, conc 1 μm): 0

Compound: COc1ccc(C(=O)Cn2c(-c3nonc3N)nc3ccccc32)cc1 [Example 19]
- PI staining for cell cycle distribution, G2M (Jurkat [1]): 0
- PI staining for cell cycle distribution, subG1 (Jurkat [1]): 0
- IC50 (HeLa [2]): 100 to 1000 nM
- IC50 (Jurkat [3]): 10 to 100 nM
- PI staining for cell cycle distribution, G2M (HeLa [4]): 2
- PI staining for cell cycle distribution, subG1 (HeLa [4]): 0
- IC50 (MRC5): 100 to 1000 nM
- Hoechst 33342 nuclear staining score ([5]; H460, conc 0.01 μm): 0
- Hoechst 33342 nuclear staining score ([5]; H460, conc 0.1 μm): 0
- Hoechst 33342 nuclear staining score ([5]; H460, conc 1 μm): 2 (score 2 relating to strong activity comprising more than 70% of the cells)
- Hoechst 33342 nuclear staining score ([5]; HeLa, conc 0.01 μm): 0
- Hoechst 33342 nuclear staining score ([5]; HeLa, conc 0.1 μm): 1 (1 relating to weak activity comprising less than 70% of the cells)
- Hoechst 33342 nuclear staining score ([5]; HeLa, conc 1 μm): 2 (score 2 relating to strong activity comprising more than 70% of the cells)
- Hoechst 33342 nuclear staining score ([5]; Jily, conc 0.01 μm): 0
- Hoechst 33342 nuclear staining score ([5]; Jily, conc 0.1 μm): 2 (score 2 relating to strong activity comprising more than 70% of the cells)
- Hoechst 33342 nuclear staining score ([5]; Jily, conc 1 μm): 2 (score 2 relating to strong activity comprising more than 70% of the cells)
- Hoechst 33342 nuclear staining score ([5]; Jurkat, conc 0.01 μm): 0
- Hoechst 33342 nuclear staining score ([5]; Jurkat, conc 0.1 μm): 2 (score 2 relating to strong activity comprising more than 70% of the cells)
- Hoechst 33342 nuclear staining score ([5]; Jurkat, conc 1 μm): 2 (score 2 relating to strong activity comprising more than 70% of the cells)
- Hoechst 33342 nuclear staining score ([5]; MRC5, conc 0.01 μm): 0
- Hoechst 33342 nuclear staining score ([5]; MRC5, conc 0.1 μm): 0
- Hoechst 33342 nuclear staining score ([5]; MRC5, conc 1 μm): 2 (score 2 relating to strong activity comprising more than 70% of the cells)
- Hoechst 33342 nuclear staining score ([5]; PBLs, conc 0.01 μm): 0
- Hoechst 33342 nuclear staining score ([5]; PBLs, conc 0.1 μm): 0
- Hoechst 33342 nuclear staining score ([5]; PBLs, conc 1 μm): 0

Compound: CON=C(Cn1c(-c2nonc2N)nc2ccccc21)c1ccc(Br)cc1 (mixture of isomers) [Example 30]
- PI staining for cell cycle distribution, G2M (Jurkat [1]): 0
- PI staining for cell cycle distribution, subG1 (Jurkat [1]): 0
- IC50 (HeLa [2]): 100 to 1000 nM
- IC50 (Jurkat [3]): 100 to 1000 nM
- PI staining for cell cycle distribution, G2M (HeLa [4]): 2
- PI staining for cell cycle distribution, subG1 (HeLa [4]): 0
- IC50 (MRC5): 100 to 1000 nM
- Hoechst 33342 nuclear staining score ([5]; H460, conc 0.01 μm): 0
- Hoechst 33342 nuclear staining score ([5]; H460, conc 0.1 μm): 0
- Hoechst 33342 nuclear staining score ([5]; H460, conc 1 μm): 0
- Hoechst 33342 nuclear staining score ([5]; HeLa, conc 0.01 μm): 0
- Hoechst 33342 nuclear staining score ([5]; HeLa, conc 0.1 μm): 0
- Hoechst 33342 nuclear staining score ([5]; HeLa, conc 1 μm): 1 (1 relating to weak activity comprising less than 70% of the cells)
- Hoechst 33342 nuclear staining score ([5]; Jily, conc 0.01 μm): 0
- Hoechst 33342 nuclear staining score ([5]; Jily, conc 0.1 μm): 0
- Hoechst 33342 nuclear staining score ([5]; Jily, conc 1 μm): 1 (1 relating to weak activity comprising less than 70% of the cells)
- Hoechst 33342 nuclear staining score ([5]; Jurkat, conc 0.01 μm): 0
- Hoechst 33342 nuclear staining score ([5]; Jurkat, conc 0.1 μm): 0
- Hoechst 33342 nuclear staining score ([5]; Jurkat, conc 1 μm): 2 (score 2 relating to strong activity comprising more than 70% of the cells)
- Hoechst 33342 nuclear staining score ([5]; MRC5, conc 0.01 μm): 0
- Hoechst 33342 nuclear staining score ([5]; MRC5, conc 0.1 μm): 0
- Hoechst 33342 nuclear staining score ([5]; MRC5, conc 1 μm): 2 (score 2 relating to strong activity comprising more than 70% of the cells)
- Hoechst 33342 nuclear staining score ([5]; PBLs, conc 0.01 μm): 0
- Hoechst 33342 nuclear staining score ([5]; PBLs, conc 0.1 μm): 0
- Hoechst 33342 nuclear staining score ([5]; PBLs, conc 1 μm): 0

Compound: Nc1nonc1-c1nc2ccccc2n1CC(=O)c1ccc(Br)cc1 [Example 29]
- PI staining for cell cycle distribution, G2M (Jurkat [1]): 0
- PI staining for cell cycle distribution, subG1 (Jurkat [1]): 0
- IC50 (HeLa [2]): 10 to 100 nM
- IC50 (Jurkat [3]): 10 to 100 nM
- PI staining for cell cycle distribution, G2M (HeLa [4]): 2
- PI staining for cell cycle distribution, subG1 (HeLa [4]): 0
- IC50 (MRC5): 10 to 100 nM
- Hoechst 33342 nuclear staining score ([5]; H460, conc 0.01 μm): 0
- Hoechst 33342 nuclear staining score ([5]; H460, conc 0.1 μm): 0
- Hoechst 33342 nuclear staining score ([5]; H460, conc 1 μm): 2 (score 2 relating to strong activity comprising more than 70% of the cells)
- Hoechst 33342 nuclear staining score ([5]; HeLa, conc 0.01 μm): 0
- Hoechst 33342 nuclear staining score ([5]; HeLa, conc 0.1 μm): 1 (1 relating to weak activity comprising less than 70% of the cells)
- Hoechst 33342 nuclear staining score ([5]; HeLa, conc 1 μm): 2 (score 2 relating to strong activity comprising more than 70% of the cells)
- Hoechst 33342 nuclear staining score ([5]; Jily, conc 0.01 μm): 0
- Hoechst 33342 nuclear staining score ([5]; Jily, conc 0.1 μm): 2 (score 2 relating to strong activity comprising more than 70% of the cells)
- Hoechst 33342 nuclear staining score ([5]; Jily, conc 1 μm): 2 (score 2 relating to strong activity comprising more than 70% of the cells)
- Hoechst 33342 nuclear staining score ([5]; Jurkat, conc 0.01 μm): 0
- Hoechst 33342 nuclear staining score ([5]; Jurkat, conc 0.1 μm): 2 (score 2 relating to strong activity comprising more than 70% of the cells)
- Hoechst 33342 nuclear staining score ([5]; Jurkat, conc 1 μm): 2 (score 2 relating to strong activity comprising more than 70% of the cells)
- Hoechst 33342 nuclear staining score ([5]; MRC5, conc 0.01 μm): 0
- Hoechst 33342 nuclear staining score ([5]; MRC5, conc 0.1 μm): 2 (score 2 relating to strong activity comprising more than 70% of the cells)
- Hoechst 33342 nuclear staining score ([5]; MRC5, conc 1 μm): 2 (score 2 relating to strong activity comprising more than 70% of the cells)
- Hoechst 33342 nuclear staining score ([5]; PBLs, conc 0.01 μm): 0
- Hoechst 33342 nuclear staining score ([5]; PBLs, conc 0.1 μm): 0
- Hoechst 33342 nuclear staining score ([5]; PBLs, conc 1 μm): 0
